Measurements: patent publication US6610677B2, “Pyrazole compounds useful as protein kinase inhibitors” (Vertex Pharmaceuticals Incorporated, priority 2000, dated 2003)

Key:
GSK-3β (AA 1-420) = target: T1, GSK-3β (AA 1-420) (Homo sapiens, UniProt P49841); experiment: Ki determination for the inhibition of GSK-3 (coupled enzyme system); assay type: biochemical; conditions: 20 μM ATP, 300 μM peptide, 20 nM GSK-3β, 30° C
T1 construct: GSK-3β (AA 1-420)
Summary of the method: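 Ki values come from reaction rates over 10 min at 30 °C as a function of inhibitor concentration (12-point titration, 0.002–30 μM, 10 min preincubation). GSK-3β (AA 1-420, 20 nM) phosphorylated 300 μM primed peptide with 20 μM ATP; ADP formation followed by coupled NADH oxidation, pH 7.5.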

Aurora-2 = target: T2, Aurora-2 (Homo sapiens, UniProt O14965); experiment: Ki determination for the inhibition of Aurora-2 (coupled enzyme assay); assay type: biochemical; conditions: 70 nM Aurora-2, peptide LRRASLG, 30° C
T2 sequence (O14965 1-403): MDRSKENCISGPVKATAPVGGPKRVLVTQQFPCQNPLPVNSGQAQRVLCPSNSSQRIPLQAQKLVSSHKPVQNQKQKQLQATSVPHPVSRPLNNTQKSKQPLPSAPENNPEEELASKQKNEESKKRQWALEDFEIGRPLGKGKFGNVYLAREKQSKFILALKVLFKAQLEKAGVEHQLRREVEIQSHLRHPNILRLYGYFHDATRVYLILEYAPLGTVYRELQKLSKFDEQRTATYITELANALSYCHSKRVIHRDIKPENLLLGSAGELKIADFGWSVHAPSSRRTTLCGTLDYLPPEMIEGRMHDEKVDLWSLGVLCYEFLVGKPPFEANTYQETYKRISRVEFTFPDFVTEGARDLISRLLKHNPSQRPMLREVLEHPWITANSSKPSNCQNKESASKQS
Protocol: Compounds were screened in the following manner for their ability to inhibit Aurora-2 using a standard coupled enzyme assay (Fox et al (1998) Protein Sci 7, 2249).
To an assay stock buffer solution containing 0.1M HEPES 7.5, 10 mM MgCl2, 1 mM DTT, 25 mM NaCl, 2.5 mM phosphoenolpyruvate, […], 30 mg/ml pyruvate kinase, 10 mg/ml lactate dehydrogenase, […], and 800 μM peptide (LRRASLG, American Peptide, Sunnyvale, Calif.) was added a DMSO solution of a compound of the present invention to a final concentration of 30 μM. The resulting mixture was incubated at 30° C. for 10 min. The reaction was initiated by the addition of 10 μL of Aurora-2 stock solution to give a final concentration of 70 nM in the assay. The rates of reaction were obtained by monitoring absorbance at 340 nm over a 5 minute read time at 30° C. using a BioRad Ultramark plate reader (Hercules, Calif.). The Ki values were determined from the rate data as a function of inhibitor concentration.

T1 sequence (P49841 whole entry, the tested form may be a part): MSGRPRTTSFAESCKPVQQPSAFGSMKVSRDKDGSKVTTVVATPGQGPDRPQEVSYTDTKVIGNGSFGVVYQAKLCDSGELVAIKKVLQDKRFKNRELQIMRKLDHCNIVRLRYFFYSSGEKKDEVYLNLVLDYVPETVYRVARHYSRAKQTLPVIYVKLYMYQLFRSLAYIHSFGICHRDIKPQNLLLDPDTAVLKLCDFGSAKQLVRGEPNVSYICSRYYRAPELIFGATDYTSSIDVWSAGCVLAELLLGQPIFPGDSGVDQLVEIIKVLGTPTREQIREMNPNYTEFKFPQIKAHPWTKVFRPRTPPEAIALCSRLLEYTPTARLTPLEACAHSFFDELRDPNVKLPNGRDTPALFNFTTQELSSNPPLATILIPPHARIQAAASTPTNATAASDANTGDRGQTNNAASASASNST

Ki (GSK-3β (AA 1-420)) [nM] | Ki (Aurora-2) [nM] | SMILES
< 100 | 100 to 1000 | FC(F)(F)c1ccccc1-c1nc(Nc2n[nH]c3ccc(Br)cc23)c2ccccc2n1 [II-79, (5-Bromo-1H-indazol-3-yl)-[2-(2-trifluoromethyl-phenyl)-quinazolin-4-yl]-amine]
< 100 | 100 to 1000 | Fc1cc(F)c2[nH]nc(Nc3nc(-c4cccnc4Cl)nc4ccccc34)c2c1 [II-94, [2-(2-Chloro-pyridin-3-yl)-quinazolin-4-yl]-(5,7-Difluoro-1H-indazol-3-yl)-amine]
< 100 | 1000 to 20000 | FC(F)(F)c1ccc2[nH]nc(Nc3nc(-c4ccccc4C(F)(F)F)nc4c3CCCC4)c2c1 [II-10, (5-Trifluoromethyl-1H-indazol-3-yl)-[2-(2-trifluoromethyl-phenyl)-5,6,7,8-tetrahydroquinazolin-4-yl]-amine]
100 to 1000 | 1000 to 20000 | FC(F)(F)c1ccccc1-c1cc(Nc2nc[nH]n2)c2ccccc2n1 [IX-177, (1H-[1,2,4]triazol-3-yl)-[2-(2-trifluoromethyl-phenyl)-quinolin-4-yl]-amine]
< 100 | 100 to 1000 | CC(=O)c1ccccc1-c1nc(Nc2cc(C)[nH]n2)c2ccccc2n1 [II-39, [2-(2-Acetylphenyl)-quinazolin-4-yl]-(5-methyl-2H-pyrazol-3-yl)-amine]
< 100 | < 100 | Cc1cc(Nc2nc(-c3ccccc3C)nc3ccccc23)n[nH]1 [II-33, (5-Methyl-2H-pyrazol-3-yl)-[2-(2-methylphenyl)-quinazolin-4-yl]-amine]
100 to 1000 | 100 to 1000 | OCc1cc(Nc2nc(N3CCCCC3)nc3ccccc23)[nH]n1 [III-124, (5-Hydroxymethyl-2H-pyrazol-3-yl)-[2-(piperidin-1-yl)-quinazolin-4-yl]-amine]
< 100 | 100 to 1000 | FC(F)(F)c1ccc2[nH]nc(Nc3nc(-c4ccccc4Cl)nc4ccccc34)c2c1 [II-77, [2-(2-Chloro-phenyl)-quinazolin-4-yl]-(5-trifluoromethyl-1H-indazol-3-yl)-amine]
< 100 | 100 to 1000 | FC(F)(F)c1ccccc1-c1nc(Nc2cc[nH]n2)c2ccccc2n1 [II-53, (2H-Pyrazol-3-yl)-[2-(2-trifluoromethylphenyl)-quinazolin-4-yl]-amine]
< 100 | 100 to 1000 | Cc1cc(Nc2nc(-c3ccccc3Cl)nc(C)c2C)n[nH]1 [II-1, [2-(2-Clorophenyl)-5,6-dimethylpyrimidin-4-yl]-(5-Methyl-2H-pyrazol-3-yl)-amine]
< 100 | 100 to 1000 | FC(F)(F)c1ccccc1-c1nc(Nc2n[nH]c3ncccc23)c2ccccc2n1 [II-99, (1H-Pyrazolo[3,4-b]pyridin-3-yl)-[2-(2-trifluoromethyl-phenyl)-quinazolin-4-yl]-amine]
< 100 | < 100 | Cc1cc(Nc2nc(-c3ccccc3)nc3c2CCCC3)n[nH]1 [III-7, (5-Methyl-2H-pyrazol-3-yl)-(2-phenyl-5,6,7,8-tetrahydroquinazolin-4-yl)-amine]
< 100 | < 100 | Cc1cc(Nc2nc(-c3cccc(C#N)c3)nc3ccccc23)[nH]n1 [III-54, [2-(3-Cyanophenyl)-quinazolin-4-yl]-(5-methyl-2H-pyrazol-3-yl)-amine]
100 to 1000 | < 100 | Cc1cccc(-c2nc(Nc3cc(C)n[nH]3)c3ccccc3n2)c1 [III-50, [2-(3-Methylphenyl)-quinazolin-4-yl]-(5-methyl-2H-pyrazol-3-yl)-amine]
< 100 | 1000 to 20000 | Clc1ccccc1-c1nc(Nc2n[nH]c3ccccc23)c2ccccc2n1 [II-63, [2-(2-Chloro-phenyl)-quinazolin-4-yl]-(1H-indazol-3-yl)-amine]
< 100 | 1000 to 20000 | FC(F)(F)c1ccccc1-c1nc(Nc2nc[nH]n2)c2ccccc2n1 [IX-47, (2H-[1,2,4]-Triazol-3-yl)-[2-(2-trifluoromethylphenyl)-quinazolin-4-yl]-amine]
< 100 | < 100 | Cc1cc(Nc2nc(-c3cccc(C(C)C)c3)nc3ccccc23)[nH]n1 [III-55, [2-(3-Isopropylphenyl)-quinazolin-4-yl]-(5-methyl-2H-pyrazol-3-yl)-amine]
< 100 | 1000 to 20000 | FC(F)(F)c1ccccc1-c1nc(Nc2n[nH]c3ccccc23)c2ccccc2n1 [II-57, (1H-indazol-3-yl)-[2-(2-trifluoromethyl-phenyl)-quinazolin-4-yl]-amine]
